Where two headings read alike, the source gives them in different places.
Tests used:
[1] = test system: Phosphorylation of ERK½ in MIA PaCa-2 cells; experiment: Phospho-ERK½ MSD Assay in MIA PaCa-2 cells; type: cell-based; settings: 4 hours compound treatment, 10 ng/mL EGF for 10 min, read-out: p-ERK IC50 (MIA PaCa-2)
Procedure: (§1) Phospho-ERK½ MSD Assay: MIA PaCa-2 (ATCC® CRL-1420™) and A549 (ATCC® CCL-185™) cells were cultured in RPMI 1640 Medium (ThermoFisher Scientific 11875093) containing 10% fetal bovine serum (ThermoFisher Scientific 16000044) and 1× penicillin-streptomycin-glutamine (ThermoFisher Scientific 10378016). Sixteen hours prior to compound treatment, MIA PaCa-2 or A549 cells were seeded in 96-well cell culture plates at a density of 25,000 cells/well and incubated at 37° C., 5% CO2. A compound dose-response titration was diluted in growth media, added to appropriate wells of a cell culture plate, and then incubated at 37° C., 5% CO2 for 4 hours. Following compound treatment, cells were stimulated with 10 ng/mL EGF (Roche 11376454001) for 10 min, washed with ice-cold Dulbecco's phosphate-buffered saline, no Ca^2+ or Mg^2+ (ThermoFisher Scientific 14190144), and then lysed in RIPA buffer (50 mM Tris-HCl pH 7.5, 1% Igepal, 0.5% sodium deoxycholate, 150 mM NaCl, and 0.5% sodium dodecyl sulfate) containing protease inhibitors (Roche 4693132001) and phosphatase inhibitors (Roche 4906837001). Cell lysates were stored frozen at −80° C. overnight. Phosphorylation of ERK½ in compound-treated lysates was assayed using Phospho-ERK½ Whole Cell Lysate kits (Meso Scale Discovery K151DWD) according to the manufacturer's protocol. Assay plates were read on a Meso Scale Discovery Sector Imager 6000, and data were analyzed using a 4-parameter logistic model to calculate IC50 values.

[2] = test system: Phosphorylation of ERK½ in A549 cells; experiment: Phospho-ERK½ MSD Assay in A549 cells; type: cell-based; settings: 4 hours compound treatment, 10 ng/mL EGF for 10 min, read-out: p-ERK IC50 (A549)
Procedure: as §1

[3] = biological target: GDP-bound protein (aa 1-169), containing both G12C and C118A amino acid substitutions (Homo sapiens, UniProt P01116, C118A/G12C); experiment: Coupled Nucleotide Exchange Assay (SOS-mediated nucleotide exchange, AlphaScreen); type: biochemical; settings: 2 hours compound pre-incubation
Procedure: Coupled Nucleotide Exchange Assay: Purified GDP-bound […] protein (aa 1-169), containing both G12C and C118A amino acid substitutions and an N-terminal His-tag, was pre-incubated with a compound dose-response titration for 2 hours in assay buffer (25 mM HEPES pH 7.4, 10 mM MgCl2, and 0.01% Triton X-100). Following compound pre-incubation, purified SOS protein (aa 564-1049) and GTP (Roche 10106399001) were added to the assay wells and incubated for an additional hour. […] The assay plates were then read on a PerkinElmer EnVision Multilabel Reader, using AlphaScreen® technology, and data were analyzed using a 4-parameter logistic model to calculate IC50 values.

[4] = Homo sapiens, MIA PaCa-2, MIA PaCa-2 cells

GDP-bound protein (aa 1-169), containing both G12C and C118A amino acid substitutions, sequence (P01116 1-169 isoform P01116-2 G12C/C118A): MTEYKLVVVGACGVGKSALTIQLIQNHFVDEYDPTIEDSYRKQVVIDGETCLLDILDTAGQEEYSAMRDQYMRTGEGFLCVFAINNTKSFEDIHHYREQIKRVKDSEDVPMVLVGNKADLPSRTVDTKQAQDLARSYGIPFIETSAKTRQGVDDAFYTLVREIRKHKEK

Row | SMILES | IC50 [1, 4] | IC50 ([2]; Homo sapiens, A549, A549 cells) | Coupled exchange IC50 [3] | IC50 ([1]; MIA PaCa-2 cells) | IC50 ([2]; A549 cells)
1 | C=C(CBr)C(=O)N1CCN(c2snc3c(F)c(-c4cc(O)cc5ccccc45)c(Cl)cc23)CC1 [Example 18-2, 2-(Bromomethyl)-1-(4-(5-chloro-7-fluoro-6-(3-hydroxy-1-naphthalenyl)-2,1-benzothiazol-3-yl)-1-piperazinyl)-2-propen-1-one] | > 100 µM | > 100 µM | 0.760 µM | – | –
2 | C=CC(=O)N1CCN(c2nnc(-c3ccccc3C(C)C)c3cc(-c4c(O)cccc4F)c(C)nc23)CC1 [Example 27, 1-(4-(3-(2-Fluoro-6-hydroxyphenyl)-2-methyl-5-(2-(2-propanyl)phenyl)pyrido[2,3-d]pyridazin-8-yl)-1-piperazinyl)-2-propen-1-one] | 12.8 µM | > 33.3 µM | 1.78 µM | – | –
3 | C=CC(=O)N1CCN(c2nnc(Cc3ccccc3)c3cc(-c4c(O)cccc4F)c(Cl)cc23)CC1 [Example 35, 2-(1-(4-acryloyl-1-piperazinyl)-4-benzyl-7-chloro-6-phthalazinyl)-3-fluorophenol] | 79.7 µM | > 100 µM | 8.01 µM | – | –
4 | C=CC(=O)N1CCN(c2snc3nc(-c4cc(O)cc5ccccc45)c(Cl)cc23)C(C)C1 (racemic) [Example 2-5, 1-(4-(5-chloro-6-(3-hydroxy-1-naphthalenyl)[1,2]thiazolo[3,4-b]pyridin-3-yl)-3-methyl-1-piperazinyl)-2-propen-1-one] | 5.46 µM | 3.7 µM | 0.684 µM | – | –
5 | C=CC(=O)N1CCN(c2nc(=O)n(-c3ccccc3C(C)C)c3cc(-c4c(C)ccc5[nH]ncc45)c(Cl)cc23)[C@@H](C)C1 (single isomer, unassigned) [Example 11-2-2] | – | – | 0.256 µM | 0.006 µM | 26.4 µM
6 | C=CC(=O)N1CCN(c2nc(=O)n(-c3ccccc3C(C)C)c3cc(-c4cccc(Cl)c4Cl)c(Cl)cc23)[C@@H](C)C1 [Example 9-10, 6-chloro-7-(2,3-dichlorophenyl)-4-((2S)-2-methyl-4-(2-propenoyl)-1-piperazinyl)-1-(2-(2-propanyl)phenyl)-2(1H)-quinazolinone] | 0.117 µM | 66.5 µM | 0.101 µM | – | –
7 | C=CC(=O)NC1CN(c2snc3c(F)c(-c4cc(O)cc5ccccc45)c(Cl)cc23)C1 [Example 4-6, N-(1-(5-chloro-7-fluoro-6-(3-hydroxy-1-naphthalenyl)-2,1-benzothiazol-3-yl)-3-azetidinyl)-2-propenamide] | 10.3 µM | > 100 µM | 0.630 µM | – | –
8 | C=CC(=O)N1CCN(c2snc3c(F)c(-c4cc(N)c(Cl)cc4Cl)c(Cl)cc23)CC1 [Example 3-20, 1-(4-(6-(5-amino-2,4-dichlorophenyl)-5-chloro-7-fluoro-2,1-benzothiazol-3-yl)-1-piperazinyl)-2-propen-l-one] | 9.65 µM | > 100 µM | 2.99 µM | – | –
9 | CN(C)C/C=C/C(=O)N1CCN(c2snc3c(F)c(-c4cc(O)cc5ccccc45)c(Cl)cc23)CC1 [Example 17-2, (2E)-1-(4-(5-chloro-7-fluoro-6-(3-hydroxy-1-naphthalenyl)-2,1-benzothiazol-3-yl)-1-piperazinyl)-4-(dimethylamino)-2-buten-1-one] | 2.6 µM | 49.1 µM | 1.02 µM | – | –
10 | C=CC(=O)N1CC2(C1)CN(c1snc3c(F)c(-c4cc(O)cc5ccccc45)c(Cl)cc13)C2 [Example 4-1, 1-(6-(5-Chloro-7-fluoro-6-(3-hydroxynaphthalen-1-yl)benzo[c]isothiazol-3-yl)-2,6-diazaspiro[3.3]heptan-2-yl)prop-2-en-1-one] | 2.34 µM | > 100 µM | 0.529 µM | – | –
11 | C=CC(=O)N1CCN(c2snc3c(F)c(-c4cc(N)cc(F)c4F)c(Cl)cc23)CC1 [Example 3-15, 1-(4-(6-(5-amino-2,3-difluorophenyl)-5-chloro-7-fluoro-2,1-benzothiazol-3-yl)-1-piperazinyl)-2-propen-1-one] | 20.1 µM | > 100 µM | 4.03 µM | – | –
12 | C=CC(=O)N1CCN(c2nc(=O)n(-c3ccccc3C(C)C)c3cc(-c4c(O)cccc4F)c(Cl)cc23)CC1 [Example 8-1, 6-Chloro-7-(2-fluoro-6-hydroxyphenyl)-1-(2-(2-propanyl)phenyl)-4-(4-(2-propenoyl)-1-piperazanyl)-2(1H)-quinazolinone] | – | 62.3 µM | 0.542 µM | 0.211 µM | –
13 | C=CC(=O)N1CCN(c2nnc(-c3cccc4[nH]ccc34)c3cc(-c4c(O)cccc4F)c(Cl)cc23)CC1 [Example 10-9, 1-(4-(7-chloro-6-(2-fluoro-6-hydroxyphenyl)-4-(1H-indol-4-yl)-1-phthalazinyl)-1-piperazinyl)-2-propen-1-one] | 33.6 µM | > 100 µM | 1.68 µM | – | –
14 | C=CC(=O)N1CCN(c2nc(=O)n(CC3CC3)c3nc(-c4c(O)cccc4F)c(Cl)cc23)CC1 [Example 38, 6-chloro-1-(cyclopropylmethyl)-7-(2-fluoro-6-hydroxyphenyl)-4-(4-(2-propenoyl)-1-piperazinyl)pyrido[2,3-d]pyrimidin-2(1H)-one] | 1.39 µM | > 33.3 µM | 0.484 µM | – | –
15 | C=CC(=O)N1CCN(c2snc3cc(-c4cc(O)cc5ccccc45)c(Cl)cc23)CC1 [Example 1-3] | 3.84 µM | > 100 µM | – | – | –
16 | C=CC(=O)N1CCN(c2snc3c(F)c(-c4cc(O)ccc4F)c(Cl)cc23)CC1 [Example 1-28, 1-(4-(5-chloro-7-fluoro-6-(2-fluoro-5-hydroxyphenyl)benzo[c]isothiazol-3-yl)piperazin-1-yl)prop-2-en-1-one] | – | > 100 µM | 2.20 µM | – | –
17 | C=CC(=O)N1CCN(c2nc(=O)n(-c3ccncc3C3CC3)c3cc(-c4c(O)cccc4F)c(Cl)cc23)[C@@H](C)C1 (single isomer, unassigned) [Example 9-7-2] | – | – | – | 0.237 µM | 62 µM
18 | C=CC(=O)N1CCN(c2nc(=O)n(-c3ccncc3C3CC3)c3cc(-c4c(O)cccc4F)c(Cl)cc23)[C@@H](C)C1 (single isomer, unassigned) [Example 9-7-1] | – | – | – | 0.023 µM | 14.9 µM
19 | C=CC(=O)N1CCN(c2nc(=O)n(-c3ccccc3C(C)C)c3nc(-c4c(O)cccc4F)c(Cl)cc23)CC1 [Example 8-2, 6-chloro-7-(2-fluoro-6-hydroxyphenyl)-1-(2-(2-propanyl)phenyl)-4-(4-(2-propenoyl)-1-piperazinyl)pyrido[2,3-d]pyrimidin-2(1H)-one] | 0.05 µM | > 100 µM | – | – | –
20 | C=CC(=O)N1CCN(c2snc3c(F)c(-c4cc(O)c(Cl)cc4Cl)c(Cl)cc23)CC1 [Example 3-17, 1-(4-(5-chloro-6-(2,4-dichloro-5-hydroxyphenyl)-7-fluoro-2,1-benzothiazol-3-yl)-1-piperazinyl)-2-propen-1-one] | – | – | 5.48 µM | – | –
21 | C=CC(=O)N1CCN(c2nnc(Cc3ccccc3)c3cc(Cl)c(Cl)cc23)CC1 [Example 34, 1-(4-Acryloyl-1-piperazinyl)-4-benzyl-6,7-dichlorophthalazine] | – | – | 34.2 µM | – | –
22 | C=CC(=O)N1CCN(c2snc3c(F)c(-c4nc(NC)cc5ccccc45)c(Cl)cc23)CC1 [Example 24, 1-(4-(5-Chloro-7-fluoro-6-(3-(methylamino)-1-isoquinolinyl)-2,1-benzothiazol-3-yl)-1-piperazinyl)-2-propen-1-one] | – | – | 6.20 µM | – | –
